Key:
Test in all cases: Eurofins kinase panel
Format in all cases: biochemical
CSK(h) = biological target: T1, CSK(h) (Homo sapiens, UniProt P41240); settings: read-out: Inhibition rate (%)
T1 construct: purchased Eurofins (KinaseProfiler)

EphA8(h) = biological target: T2, EphA8(h) (Homo sapiens, UniProt P29322); settings: read-out: Inhibition rate (%)
T2 construct: purchased Eurofins (KinaseProfiler)
T2 sequence (P29322 28-1005): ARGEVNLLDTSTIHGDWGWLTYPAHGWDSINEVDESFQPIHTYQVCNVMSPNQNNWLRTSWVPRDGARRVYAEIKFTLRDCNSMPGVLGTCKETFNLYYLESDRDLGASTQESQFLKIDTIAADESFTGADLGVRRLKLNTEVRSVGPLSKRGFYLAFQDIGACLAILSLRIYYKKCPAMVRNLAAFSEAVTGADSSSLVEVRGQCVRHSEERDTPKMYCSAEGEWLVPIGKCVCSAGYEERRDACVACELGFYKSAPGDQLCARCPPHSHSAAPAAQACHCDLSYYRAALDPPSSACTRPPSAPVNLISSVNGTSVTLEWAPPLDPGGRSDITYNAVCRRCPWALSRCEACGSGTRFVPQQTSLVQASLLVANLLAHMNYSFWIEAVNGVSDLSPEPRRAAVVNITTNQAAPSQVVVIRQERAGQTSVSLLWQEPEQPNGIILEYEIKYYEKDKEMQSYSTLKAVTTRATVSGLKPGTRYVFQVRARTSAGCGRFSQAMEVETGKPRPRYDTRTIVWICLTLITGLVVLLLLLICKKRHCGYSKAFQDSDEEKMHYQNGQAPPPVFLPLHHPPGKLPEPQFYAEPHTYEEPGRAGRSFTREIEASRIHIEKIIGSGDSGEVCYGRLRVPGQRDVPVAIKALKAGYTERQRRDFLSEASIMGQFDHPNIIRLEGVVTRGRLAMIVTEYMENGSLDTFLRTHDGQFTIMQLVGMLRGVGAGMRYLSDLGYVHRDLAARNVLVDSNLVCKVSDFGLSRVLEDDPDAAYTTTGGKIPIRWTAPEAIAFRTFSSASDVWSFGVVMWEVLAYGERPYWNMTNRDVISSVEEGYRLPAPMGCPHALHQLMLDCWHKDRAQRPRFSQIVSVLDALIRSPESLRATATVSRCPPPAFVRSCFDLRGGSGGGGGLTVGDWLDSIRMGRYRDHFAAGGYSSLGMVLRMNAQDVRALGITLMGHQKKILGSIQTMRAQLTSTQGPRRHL

NUAK2(h) = biological target: T3, NUAK2(h) (Homo sapiens, UniProt Q9H093); settings: read-out: Inhibition rate (%)
T3 construct: purchased Eurofins (KinaseProfiler)
T3 sequence (Q9H093 1-628): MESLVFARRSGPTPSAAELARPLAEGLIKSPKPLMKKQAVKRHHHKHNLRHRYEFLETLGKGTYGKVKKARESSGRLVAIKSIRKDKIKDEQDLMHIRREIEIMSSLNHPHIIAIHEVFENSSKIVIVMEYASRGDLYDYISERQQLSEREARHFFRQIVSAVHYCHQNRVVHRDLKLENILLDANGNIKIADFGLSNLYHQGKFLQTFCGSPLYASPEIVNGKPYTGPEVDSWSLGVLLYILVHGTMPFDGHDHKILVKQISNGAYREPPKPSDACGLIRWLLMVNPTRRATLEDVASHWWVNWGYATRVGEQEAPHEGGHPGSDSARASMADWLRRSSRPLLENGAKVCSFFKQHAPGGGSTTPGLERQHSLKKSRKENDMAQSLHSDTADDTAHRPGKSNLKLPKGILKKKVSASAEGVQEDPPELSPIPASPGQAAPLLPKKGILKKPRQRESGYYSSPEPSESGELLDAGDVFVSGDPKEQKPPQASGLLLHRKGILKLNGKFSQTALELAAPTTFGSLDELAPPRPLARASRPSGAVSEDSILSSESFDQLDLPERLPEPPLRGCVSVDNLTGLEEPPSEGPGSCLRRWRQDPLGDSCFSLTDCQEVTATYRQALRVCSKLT

PKCδ(h) = biological target: T4, PKCδ(h) (Homo sapiens, UniProt Q05655); settings: read-out: Inhibition rate (%)
T4 construct: purchased Eurofins (KinaseProfiler)

Met(Y1248C)(h) = biological target: T5, Met(Y1248C)(h) (Homo sapiens, UniProt P08581, Y1230C); settings: read-out: Inhibition rate (%)
T5 construct: purchased Eurofins (KinaseProfiler)
T5 sequence (P08581 956-1390 Y1230C limits assumed): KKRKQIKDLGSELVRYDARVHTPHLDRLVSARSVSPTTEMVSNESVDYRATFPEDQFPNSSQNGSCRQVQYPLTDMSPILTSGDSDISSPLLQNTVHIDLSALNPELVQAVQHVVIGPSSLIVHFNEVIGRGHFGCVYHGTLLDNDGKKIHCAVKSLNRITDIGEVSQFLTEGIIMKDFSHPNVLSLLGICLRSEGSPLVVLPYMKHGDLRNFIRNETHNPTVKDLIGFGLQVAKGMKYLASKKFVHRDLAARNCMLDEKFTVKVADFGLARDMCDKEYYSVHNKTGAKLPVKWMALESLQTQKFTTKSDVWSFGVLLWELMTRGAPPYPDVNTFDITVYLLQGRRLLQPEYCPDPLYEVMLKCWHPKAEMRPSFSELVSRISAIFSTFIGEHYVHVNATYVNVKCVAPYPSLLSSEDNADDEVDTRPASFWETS

TYK2(h) = biological target: T6, TYK2(h) (Homo sapiens, UniProt P29597); settings: read-out: Inhibition rate (%)
T6 construct: purchased Eurofins (KinaseProfiler)
T6 sequence (P29597 whole entry): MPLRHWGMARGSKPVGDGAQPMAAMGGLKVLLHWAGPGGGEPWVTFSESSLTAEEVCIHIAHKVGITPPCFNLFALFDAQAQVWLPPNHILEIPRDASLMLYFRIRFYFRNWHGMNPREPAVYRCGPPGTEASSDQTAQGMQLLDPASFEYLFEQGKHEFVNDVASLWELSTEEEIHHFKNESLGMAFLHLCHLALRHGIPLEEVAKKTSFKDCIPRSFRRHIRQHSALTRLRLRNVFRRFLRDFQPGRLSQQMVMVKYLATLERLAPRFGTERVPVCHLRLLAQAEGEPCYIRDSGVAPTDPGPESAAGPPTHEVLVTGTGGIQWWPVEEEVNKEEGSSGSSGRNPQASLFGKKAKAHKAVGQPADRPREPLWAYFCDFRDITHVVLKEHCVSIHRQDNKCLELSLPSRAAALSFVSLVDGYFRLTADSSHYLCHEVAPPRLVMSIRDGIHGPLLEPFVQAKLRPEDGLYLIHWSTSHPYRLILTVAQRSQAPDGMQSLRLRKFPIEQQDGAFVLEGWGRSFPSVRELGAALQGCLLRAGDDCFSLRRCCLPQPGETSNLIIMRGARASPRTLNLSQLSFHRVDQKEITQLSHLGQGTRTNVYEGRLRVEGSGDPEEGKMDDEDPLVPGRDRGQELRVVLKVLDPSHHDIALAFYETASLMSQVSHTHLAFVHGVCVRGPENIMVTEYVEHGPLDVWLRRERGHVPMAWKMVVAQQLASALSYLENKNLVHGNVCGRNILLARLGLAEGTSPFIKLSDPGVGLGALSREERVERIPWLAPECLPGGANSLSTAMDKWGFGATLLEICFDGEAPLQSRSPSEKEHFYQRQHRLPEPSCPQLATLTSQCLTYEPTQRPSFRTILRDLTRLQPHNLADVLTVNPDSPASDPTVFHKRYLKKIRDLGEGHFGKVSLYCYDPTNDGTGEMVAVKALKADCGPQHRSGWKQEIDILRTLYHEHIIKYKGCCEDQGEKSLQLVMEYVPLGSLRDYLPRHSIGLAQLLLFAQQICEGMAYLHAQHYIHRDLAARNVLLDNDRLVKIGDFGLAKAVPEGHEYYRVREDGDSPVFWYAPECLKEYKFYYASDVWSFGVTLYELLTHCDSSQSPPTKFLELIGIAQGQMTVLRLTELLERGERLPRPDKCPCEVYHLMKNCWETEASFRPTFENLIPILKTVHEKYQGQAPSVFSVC

cKit(D816H)(h) = biological target: T7, cKit(D816H)(h) (Homo sapiens, UniProt P10721, D816H); settings: read-out: Inhibition rate (%)
T7 construct: purchased Eurofins (KinaseProfiler)
T7 sequence (P10721 26-976 D816H): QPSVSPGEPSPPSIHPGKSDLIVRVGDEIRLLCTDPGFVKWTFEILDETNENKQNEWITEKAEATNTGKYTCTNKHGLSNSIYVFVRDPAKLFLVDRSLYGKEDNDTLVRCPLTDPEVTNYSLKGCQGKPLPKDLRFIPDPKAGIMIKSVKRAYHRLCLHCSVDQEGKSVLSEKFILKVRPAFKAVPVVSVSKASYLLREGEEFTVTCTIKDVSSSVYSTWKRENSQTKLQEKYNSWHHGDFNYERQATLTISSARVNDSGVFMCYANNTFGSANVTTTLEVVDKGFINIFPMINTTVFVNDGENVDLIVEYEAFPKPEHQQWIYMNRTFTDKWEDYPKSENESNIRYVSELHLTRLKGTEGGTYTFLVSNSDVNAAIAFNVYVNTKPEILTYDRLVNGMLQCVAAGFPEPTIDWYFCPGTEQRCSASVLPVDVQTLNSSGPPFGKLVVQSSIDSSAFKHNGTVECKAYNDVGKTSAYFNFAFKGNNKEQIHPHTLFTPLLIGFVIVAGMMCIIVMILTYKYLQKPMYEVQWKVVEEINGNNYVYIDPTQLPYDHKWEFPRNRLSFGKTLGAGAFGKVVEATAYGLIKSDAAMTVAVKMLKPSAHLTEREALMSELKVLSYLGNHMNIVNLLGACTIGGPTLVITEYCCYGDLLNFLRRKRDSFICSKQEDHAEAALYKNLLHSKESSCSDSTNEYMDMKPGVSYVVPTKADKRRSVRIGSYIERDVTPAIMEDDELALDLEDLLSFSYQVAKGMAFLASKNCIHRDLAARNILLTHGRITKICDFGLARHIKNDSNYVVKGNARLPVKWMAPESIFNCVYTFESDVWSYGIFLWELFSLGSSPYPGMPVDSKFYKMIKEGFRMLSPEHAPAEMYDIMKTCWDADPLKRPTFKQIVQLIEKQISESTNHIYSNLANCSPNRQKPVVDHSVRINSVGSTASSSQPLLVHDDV

LTK(h) = biological target: T8, LTK(h) (Homo sapiens, UniProt P29376); settings: read-out: Inhibition rate (%)
T8 construct: purchased Eurofins (KinaseProfiler)
T8 sequence (P29376 17-864): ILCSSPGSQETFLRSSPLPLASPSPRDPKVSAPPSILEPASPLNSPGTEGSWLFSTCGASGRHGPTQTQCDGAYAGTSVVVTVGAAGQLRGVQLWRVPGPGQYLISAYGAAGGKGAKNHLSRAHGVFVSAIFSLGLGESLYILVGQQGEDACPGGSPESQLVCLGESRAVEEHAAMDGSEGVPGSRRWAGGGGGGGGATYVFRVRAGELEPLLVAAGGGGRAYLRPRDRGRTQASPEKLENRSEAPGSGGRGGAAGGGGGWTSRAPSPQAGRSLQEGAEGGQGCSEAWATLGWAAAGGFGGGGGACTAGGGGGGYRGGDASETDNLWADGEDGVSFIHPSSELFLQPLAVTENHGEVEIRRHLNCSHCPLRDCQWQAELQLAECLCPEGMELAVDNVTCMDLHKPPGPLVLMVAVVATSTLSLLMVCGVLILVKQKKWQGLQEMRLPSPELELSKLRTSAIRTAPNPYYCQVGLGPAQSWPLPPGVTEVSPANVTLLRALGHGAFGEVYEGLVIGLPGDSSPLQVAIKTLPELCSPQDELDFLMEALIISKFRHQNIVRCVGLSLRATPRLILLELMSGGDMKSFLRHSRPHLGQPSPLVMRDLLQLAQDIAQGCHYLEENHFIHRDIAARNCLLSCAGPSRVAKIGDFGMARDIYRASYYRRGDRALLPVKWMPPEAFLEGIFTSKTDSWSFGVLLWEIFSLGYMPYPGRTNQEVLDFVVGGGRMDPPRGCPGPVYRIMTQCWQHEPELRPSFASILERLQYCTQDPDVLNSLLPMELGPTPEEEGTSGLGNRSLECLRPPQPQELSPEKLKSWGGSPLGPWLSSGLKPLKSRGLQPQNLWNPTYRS

GCN2(h) = biological target: T9, GCN2(h) (Homo sapiens, UniProt Q9P2K8); settings: read-out: Inhibition rate (%)
T9 construct: purchased Eurofins (KinaseProfiler)
T9 sequence (Q9P2K8 whole entry): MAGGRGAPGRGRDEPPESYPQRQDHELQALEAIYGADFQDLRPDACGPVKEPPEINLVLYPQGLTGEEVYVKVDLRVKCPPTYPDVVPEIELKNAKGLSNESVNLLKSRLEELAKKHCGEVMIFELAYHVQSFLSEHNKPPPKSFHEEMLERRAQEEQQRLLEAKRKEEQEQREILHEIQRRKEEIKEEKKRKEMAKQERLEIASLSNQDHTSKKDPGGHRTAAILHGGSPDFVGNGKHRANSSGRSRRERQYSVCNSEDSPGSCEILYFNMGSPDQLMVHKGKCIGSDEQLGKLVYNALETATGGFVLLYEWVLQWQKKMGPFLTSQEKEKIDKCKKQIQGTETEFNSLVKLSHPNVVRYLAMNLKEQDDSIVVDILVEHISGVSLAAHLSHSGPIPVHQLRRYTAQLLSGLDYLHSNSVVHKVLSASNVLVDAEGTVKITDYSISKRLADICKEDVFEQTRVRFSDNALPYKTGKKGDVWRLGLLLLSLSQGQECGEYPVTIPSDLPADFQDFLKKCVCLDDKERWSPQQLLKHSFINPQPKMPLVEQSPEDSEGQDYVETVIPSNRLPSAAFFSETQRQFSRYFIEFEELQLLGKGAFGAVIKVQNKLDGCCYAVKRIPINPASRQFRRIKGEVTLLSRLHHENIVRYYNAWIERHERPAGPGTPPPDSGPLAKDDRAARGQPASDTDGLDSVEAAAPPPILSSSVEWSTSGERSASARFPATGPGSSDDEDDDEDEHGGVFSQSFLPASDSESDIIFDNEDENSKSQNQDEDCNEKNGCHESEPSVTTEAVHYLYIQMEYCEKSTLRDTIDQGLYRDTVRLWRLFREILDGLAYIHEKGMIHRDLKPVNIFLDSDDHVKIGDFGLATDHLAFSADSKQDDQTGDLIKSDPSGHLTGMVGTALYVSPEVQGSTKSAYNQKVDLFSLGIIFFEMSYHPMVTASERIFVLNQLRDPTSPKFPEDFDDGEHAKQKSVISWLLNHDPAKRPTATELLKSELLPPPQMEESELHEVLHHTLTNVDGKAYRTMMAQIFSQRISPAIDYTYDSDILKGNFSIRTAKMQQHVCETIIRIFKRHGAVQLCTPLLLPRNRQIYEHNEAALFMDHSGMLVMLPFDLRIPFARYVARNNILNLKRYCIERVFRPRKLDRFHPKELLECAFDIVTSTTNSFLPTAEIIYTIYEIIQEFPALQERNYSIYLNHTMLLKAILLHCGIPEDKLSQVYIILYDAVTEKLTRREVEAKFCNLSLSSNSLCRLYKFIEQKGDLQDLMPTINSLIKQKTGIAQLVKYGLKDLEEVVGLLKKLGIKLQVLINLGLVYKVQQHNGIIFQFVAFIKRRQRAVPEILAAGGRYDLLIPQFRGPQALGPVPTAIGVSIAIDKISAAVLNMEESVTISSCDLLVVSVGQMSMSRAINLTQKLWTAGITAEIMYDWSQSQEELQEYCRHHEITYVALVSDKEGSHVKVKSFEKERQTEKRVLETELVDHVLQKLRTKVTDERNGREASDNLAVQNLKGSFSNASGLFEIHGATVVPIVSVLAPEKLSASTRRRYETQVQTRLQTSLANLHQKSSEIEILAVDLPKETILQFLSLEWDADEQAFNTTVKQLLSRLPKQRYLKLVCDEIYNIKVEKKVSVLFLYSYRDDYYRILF

ROCK-II(r) = test system: ROCK-II(r)

Compound: COc1cc(OC)c(Cl)c(-c2ccc3c(NC(=O)c4ccc(N5CCNC(C)(C)C5)cc4)n[nH]c3n2)c1Cl [3D185]
- inhibition at 0.01 µM (CSK(h); 10 nM): 8%
- inhibition at 0.1 µM (CSK(h); 100 nM): 23%
- inhibition at 1 µM (CSK(h); 1000 nM): 63%
- inhibition at 0.01 µM (EphA8(h); 10 nM): 1%
- inhibition at 0.1 µM (EphA8(h); 100 nM): 5%
- inhibition at 1 µM (EphA8(h); 1000 nM): 29%
- inhibition at 0.01 µM (NUAK2(h); 10 nM): -1%
- inhibition at 0.1 µM (NUAK2(h); 100 nM): -1%
- inhibition at 1 µM (NUAK2(h); 1000 nM): 0%
- inhibition at 0.01 µM (PKCδ(h); 10 nM): 5%
- inhibition at 0.1 µM (PKCδ(h); 100 nM): 4%
- inhibition at 1 µM (PKCδ(h); 1000 nM): -1%
- inhibition at 0.01 µM (Met(Y1248C)(h); 10 nM): -9%
- inhibition at 0.1 µM (Met(Y1248C)(h); 100 nM): -2%
- inhibition at 1 µM (Met(Y1248C)(h); 1000 nM): 5%
- inhibition at 0.01 µM (TYK2(h); 10 nM): 1%
- inhibition at 0.1 µM (TYK2(h); 100 nM): 14%
- inhibition at 1 µM (TYK2(h); 1000 nM): 67%
- inhibition at 0.01 µM (cKit(D816H)(h); 10 nM): 22%
- inhibition at 0.1 µM (cKit(D816H)(h); 100 nM): 27%
- inhibition at 1 µM (cKit(D816H)(h); 1000 nM): 44%
- inhibition at 0.01 µM (LTK(h); 10 nM): -8%
- inhibition at 0.1 µM (LTK(h); 100 nM): 1%
- inhibition at 1 µM (LTK(h); 1000 nM): 37%
- inhibition at 0.01 µM (GCN2(h); 10 nM): 3%
- inhibition at 0.1 µM (GCN2(h); 100 nM): -12%
- inhibition at 1 µM (GCN2(h); 1000 nM): -49%
- Inhibition rate (%) (ROCK-II(r); 10 nM): -3%
- Inhibition rate (%) (ROCK-II(r); 100 nM): 0%
- Inhibition rate (%) (ROCK-II(r); 1000 nM): -1%

Reference: PMC6704710, “Preclinical evaluation of 3D185, a novel potent inhibitor of FGFR1/2/3 and CSF-1R, in FGFR-dependent and macrophage-dominant cancer models” (Journal of Experimental & Clinical Cancer Research : CR, 2019)
